Assay results published in US20080311589A1, “METHOD OF HIGH-THROUGHPUT SCREENING OF MOLECULES AND COMPOUNDS FOR THEIR EFFECTS ON BIOLOGICAL AND CHEMICAL PROCESSES” (priority 1999, published 2008).

Key:
[1] = test system: Mv1Lu mink lung epithelial cells; experiment: 1536 well BrdU cytoblot; format: cell-based; conditions: 1536-well plate, approximately 500 cells per well
Experimental: FIG. 3. BrdU incorporation can be efficiently detected with a cytoblot in 1536 well plates in 2 μL droplets. 500 Mv1Lu mink lung epithelial cells were seeded in each well of a white, opaque 1536 well plate (Corning/Costar, Corning, N.Y.). The cells were seeded with or without […] TGF-β in 2 μL of 1% mink medium and allowed to incubate at 37° C. with 5% CO2. After 24 hours, 0.5 μL of 50 μM BrdU in 1% mink medium was added to the indicated wells, for a final concentration of 10 μM BrdU. The plate were incubated at 37° C. with 5% CO2 for an additional 12 hours and then an anti-BrdU cytoblot protocol was performed (see protocols). Wells are magnified as indicated.
Thus, the application of the cytoblot assay to plates containing a higher density of wells was tested. Mink lung cells were seeded into opaque, white 1536-well plates with each well containing approximately 500 cells. Next, the ability of TGF-β to prevent BrdU incorporation was assayed. […] The following protocol provides experimental detail.
The reagents to be tested were prepared in 1536 well plates (Greiner America, Lake Mary, Fla.), with one or more test compounds per well. If the test compounds were attached on solid support (beads), then the beads were distributed into individual wells of 1536 well white plate in acetonitrile. […]

phosphorylated nucleolin = experiment: anti-phosphonucleolin (TG-3) cytoblot screen; format: cell-based, human
Experimental: A detection assay providing an indirect measure of the mitotic index of a population of cells was used to identify compounds that act as cell cycle inhibitors. By measuring the level of phosphorylation of a chromatin-associated protein using the anti-phosphonucleolin (TG-3) cytoblot (Stockwell et al. 1999), nucleolin the mitotic index (i.e., the number of cell in mitosis) was assessed. In brief, the library compounds were dissolved in DMSO (5 mg/ml) and pin-transferred from 384-well plates (Library plates #1-51) for a final concentration 5-10 ug/ml using a 384-polypropylene pin array (Genetix) into 384-well screening plates (Nunc) seeded with 4,000 A549 human lung carcinoma cells (ATCC) in DMEM+ and incubated for 22 hours at 37° C. with 5% CO2. Compounds from library plates #1-24 were pooled at two compounds per well, while compounds from library plates #25-51 were tested singly. […] The reactivity of the anti-phosphonucleolin antibody was measured using enhanced chemiluminescent detection (Amersham) after incubation of each well with a horseradish peroxidase-coupled anti-mouse IgM secondary antibody (Sigma) and addition of luminol. The relative luminescence produced from each well was measured on an automatic plate reader (LJL Analyst). […]

| Substance | BrdU incorporation [1] | EC50 (effective concentration) in the cytoblot assay (phosphorylated nucleolin) [µM] |
| --- | --- | --- |
| TGF-β: anti-mitogen transforming growth factor β, multifunctional polypeptide signaling factor | effectively prevents BrdU incorporation | – |
| monastrol | – | 22 |
